In publication PMC9321742 (Viruses, 2022):
Where two headings read alike, the source gives them in different places.

What was measured:
SARS-CoV-2 delta = test: microbe, parasite or virus in culture; type: cell-based; conditions: VERO E6, plus 0.5 µM P-gp inhibitor CP-100356, MOI 0.005, 72 h, read-out: IC50 Delta Mean ± SD
SARS-CoV-2 omicron BA.1 = test: microbe, parasite or virus in culture; type: cell-based; conditions: read-out: IC50 BA.1 Mean ± SD
SARS-CoV-2 omicron BA.2 = test: microbe, parasite or virus in culture; type: cell-based; conditions: read-out: IC50 BA.2 Mean ± SD
in vitro = conditions: African green monkey
[1] = Severe acute respiratory syndrome coronavirus 2, Vero C1008
[2] = Severe acute respiratory syndrome coronavirus 2, Vero C1008, VERO E6, plus 0.5 µM P-gp inhibitor CP-100356, MOI 0.005, 72 h

O=c1nc(NO)ccn1[C@@H]1O[C@H](CO)[C@@H](O)[C@H]1O [EIDD-1931]
IC50 (SARS-CoV-2 delta): 1500 ± 700 nM
IC50 (SARS-CoV-2 omicron BA.1): 1000 ± 500 nM
IC50 (SARS-CoV-2 omicron BA.2): 800 ± 10 nM
CC50 (VERO E6 cells): 43300 ± 6000 nM

CC(C)(C)[C@H](NC(=O)C(F)(F)F)C(=O)N1C[C@H]2[C@@H]([C@H]1C(=O)N[C@H](C#N)C[C@@H]1CCNC1=O)C2(C)C [Nirmatrelvir]
IC50 (SARS-CoV-2 delta; [1]): 60 ± 10 nM
IC50 (SARS-CoV-2 omicron BA.1; [2]): 40 ± 20 nM
IC50 (SARS-CoV-2 omicron BA.2; [2]): 40 ± 10 nM
CC50 (VERO E6 cells; African green monkey): 40700 ± 4400 nM
CC50 (in vitro): 69600 ± 1000 nM

CCC(CC)COC(=O)[C@H](C)N[P@](=O)(OC[C@H]1O[C@@](C#N)(c2ccc3c(N)ncnn23)[C@H](O)[C@@H]1O)Oc1ccccc1 [Remdesivir]
IC50 (SARS-CoV-2 delta; [1]): 110 ± 80 nM
IC50 (SARS-CoV-2 omicron BA.1; [2]): 50 ± 40 nM
IC50 (SARS-CoV-2 omicron BA.2; [2]): 80 ± 10 nM

CP-100356 hydrochloride
Decrease of cell viability (VERO E6 cells): 20%
